{"source": "patent US11149018B2", "about": "“Substituted N-arylethyl-2-aminoquinoline-4-carboxamides and use thereof” (Bayer Aktiengesellschaft, priority 2017, dated 2021)", "data": [{"biological_target": "FP receptor (Homo sapiens (Human), UniProt P43088)", "sequence (P43088 whole entry)": "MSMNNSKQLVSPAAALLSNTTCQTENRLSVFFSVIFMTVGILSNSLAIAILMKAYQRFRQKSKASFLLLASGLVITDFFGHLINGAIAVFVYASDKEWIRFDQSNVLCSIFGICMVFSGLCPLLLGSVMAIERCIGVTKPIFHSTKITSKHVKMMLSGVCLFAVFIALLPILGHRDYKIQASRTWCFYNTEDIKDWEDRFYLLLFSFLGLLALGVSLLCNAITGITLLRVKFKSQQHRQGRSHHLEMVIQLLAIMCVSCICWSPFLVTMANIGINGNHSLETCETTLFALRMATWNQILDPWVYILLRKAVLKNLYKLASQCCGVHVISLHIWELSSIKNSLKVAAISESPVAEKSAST", "experiment": "In vitro test of inhibition of human FP receptor activity (PGF2α-induced calcium flux in FP-expressing CHEM1 cells)", "type": "cell-based", "details": "PGF2α 2 nM, some mean values of multiple determinations", "method_in_brief": "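FP antagonism in FP-expressing CHEM1 cells loaded with Fluo-8. Compound preincubated 10 min at 37° C, then receptor stimulated with 2 nM (final) PGF2α in calcium-free Tyrode with 2 mM CaCl2.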", "units": {"IC50": "nM"}, "values": [{"molecule": "Cc1c(N2CCCC(F)C2)nc2ccc(Br)cc2c1C(=O)NCC(CCC(=O)O)c1ccccc1C(F)(F)F", "note": "(single isomer, unassigned) [Example 192, 5-[({6-Bromo-2-[3-fluoropiperidin-1-yl]-3-methylquinolin-4-yl}carbonyl)amino]-4-[2-(trifluoromethyl)phenyl]pentanoic acid]", "IC50": 5.6}, {"molecule": "Cc1c(N2CCCC2)nc2ccc(Br)cc2c1C(=O)NCC(CCC(=O)O)c1c(F)cccc1C(F)(F)F", "note": "(single isomer, unassigned; (+)) [Example 164, (+)-5-({[6-Bromo-3-methyl-2-(pyrrolidin-1-yl)quinolin-4-yl]carbonyl}amino)-4-[2-fluoro-6-(trifluoromethyl)phenyl]pentanoic acid]", "IC50": 80}, {"molecule": "Cc1c(N2CCCC(F)C2)nc2ccc(Br)cc2c1C(=O)NCC(CCC(=O)O)c1c(Cl)ccc(Cl)c1Cl", "note": "(centres unmarked) [Example 180, 5-[({6-Bromo-2-[3-fluoropiperidin-1-yl]-3-methylquinolin-4-yl}carbonyl)amino]-4-(2,3,6-trichlorophenyl)pentanoic acid]", "IC50": 14}, {"molecule": "Cc1c(N2CCCC2)nc2ccc(Br)cc2c1C(=O)NCC(CCC(=O)O)c1ccccc1C(F)(F)F", "note": "(single isomer, unassigned; (-)) [Example 116, (−)-5-({[6-Bromo-3-methyl-2-(pyrrolidin-1-yl)quinolin-4-yl]carbonyl}amino)-4-[2-(trifluoromethyl)phenyl]pentanoic acid]", "IC50": 4.6}, {"molecule": "Cc1c(N2CCC(C)CC2)nc2ccc(Br)cc2c1C(=O)NCC(CCC(=O)O)c1cc(F)ccc1Cl", "note": "(racemic) [Example 18, (+/−)-5-({[6-Bromo-3-methyl-2-(4-methylpiperidin-1-yl)quinolin-4-yl]carbonyl}amino)-4-(2-chloro-5-fluorophenyl)pentanoic acid]", "IC50": 80}, {"molecule": "Cc1c(N2CCCCC2)nc2ccc(Br)cc2c1C(=O)NCC(CCC(=O)O)c1c(Cl)ccc(Cl)c1Cl", "note": "(single isomer, unassigned; (-)) [Example 173, (−)-5-({[6-Bromo-3-methyl-2-(piperidin-1-yl)quinolin-4-yl]carbonyl}amino)-4-(2,3,6-trichlorophenyl)pentanoic acid]", "IC50": 2.2}, {"molecule": "Cc1c(N2CCCCC2)nc2ccc(Br)cc2c1C(=O)NCC(CC(=O)O)c1c(F)cccc1Cl", "note": "(single isomer, unassigned; (-)) [Example 2, (−)-4-({[6-Bromo-3-methyl-2-(piperidin-1-yl)quinolin-4-yl]carbonyl}amino)-3-(2-chloro-6-fluorophenyl)butanoic acid]", "IC50": 23}, {"molecule": "Cc1c(N2CCCC(N)C2)nc2ccc(Br)cc2c1C(=O)NCC(CCC(=O)O)c1ccccc1Cl", "note": "(centres unmarked) [Example 56, 5-[({2-[3-Aminopiperidin-1-yl]-6-bromo-3-methylquinolin-4-yl}carbonyl)amino]-4-(2-chlorophenyl)pentanoic acid]", "IC50": 330}, {"molecule": "CCC1CCCN(c2nc3ccc(Br)cc3c(C(=O)NCC(CCC(=O)O)c3cc(F)ccc3F)c2C)C1", "note": "(single isomer, unassigned; (+)) [Example 228, (+)-5-[({6-Bromo-2-[3-ethylpiperidin-1-yl]-3-methylquinolin-4-yl}carbonyl)amino]-4-(2,5-difluorophenyl)pentanoic acid]", "IC50": 1.1}, {"molecule": "Cc1c(N2CC=CC2)nc2ccc(Br)cc2c1C(=O)NCC(CCC(=O)O)c1cc(F)ccc1Cl", "note": "(racemic) [Example 15, (+/−)-5-({[6-Bromo-2-(2,5-dihydro-1H-pyrrol-1-yl)-3-methylquinolin-4-yl]carbonyl}amino)-4-(2-chloro-5-fluorophenyl)pentanoic acid]", "IC50": 48}, {"molecule": "Cc1c(N2CCCCCC2)nc2ccc(Br)cc2c1C(=O)NCC(CCC(=O)O)c1ccccc1C(F)(F)F", "note": "(single isomer, unassigned; (+)) [Example 122, (+)-5-({[2-(Azepan-1-yl)-6-bromo-3-methylquinolin-4-yl]carbonyl}amino)-4-[2-(trifluoromethyl)phenyl]pentanoic acid]", "IC50": 6.7}, {"molecule": "Cc1c(N2CCCCC2)nc2ccc(Br)cc2c1C(=O)NCC(CCC(=O)O)c1cccc(F)c1Cl", "note": "(single isomer, unassigned; (+)) [Example 143, (+)-5-({[6-Bromo-3-methyl-2-(piperidin-1-yl)quinolin-4-yl]carbonyl}amino)-4-(2-chloro-3-fluorophenyl)pentanoic acid]", "IC50": 9.3}, {"molecule": "Cc1ccccc1C(CCC(=O)O)CNC(=O)c1c(C)c(N2CCCC(F)(F)C2)nc2ccc(Br)cc12", "note": "(racemic) [Example 229, (+/−)-5-({[6-Bromo-2-(3,3-difluoropiperidin-1-yl)-3-methylquinolin-4-yl]carbonyl}amino)-4-(2-methylphenyl)pentanoic acid]", "IC50": 13}, {"molecule": "CCNc1nc2ccc(Br)cc2c(C(=O)NCC(CCC(=O)O)c2ccccc2Cl)c1C", "note": "(racemic) [Example 109, (+/−)-5-({[6-Bromo-2-(ethylamino)-3-methylquinolin-4-yl]carbonyl}amino)-4-(2-chlorophenyl)pentanoic acid]", "IC50": 860}, {"molecule": "Cc1c(N2CC[C@@H](F)C2)nc2ccc(Br)cc2c1C(=O)NCC(CCC(=O)O)c1ccccc1Cl", "note": "(single isomer, unassigned; (+)) [Example 68]", "IC50": 14}, {"molecule": "Cc1c(N2CCCC(F)C2)nc2ccc(Br)cc2c1C(=O)NCC(CCC(=O)O)c1ccccc1OC(F)(F)F", "note": "(single isomer, unassigned; (-)) [Example 202, (−)-5-[({6-Bromo-2-[3-fluoropiperidin-1-yl]-3-methylquinolin-4-yl}carbonyl)amino]-4-[2-(trifluoromethoxy)phenyl]pentanoic acid]", "IC50": 1.7}, {"molecule": "Cc1c(N2CCCC(F)(F)C2)nc2ccc(Br)cc2c1C(=O)NCC(CCC(=O)O)c1c(F)cccc1C(F)(F)F", "note": "(single isomer, unassigned; (+)) [Example 168, (+)-5-({[6-Bromo-2-(3,3-difluoropiperidin-1-yl)-3-methylquinolin-4-yl]carbonyl}amino)-4-[2-fluoro-6-(trifluoromethyl)phenyl]pentanoic acid]", "IC50": 90}, {"molecule": "Cc1c(N2CCCC(C)C2)nc2ccc(Br)cc2c1C(=O)NCC(CCC(=O)O)c1ccccc1OC(F)(F)F", "note": "(single isomer, unassigned; (+)) [Example 211, (+)-5-[({6-Bromo-3-methyl-2-[3-methylpiperidin-1-yl]quinolin-4-yl}carbonyl)amino]-4-[2-(trifluoromethoxy)phenyl]pentanoic acid]", "IC50": 17}, {"molecule": "COCCNc1nc2ccc(Br)cc2c(C(=O)NCC(CCC(=O)O)c2ccccc2Cl)c1C", "note": "(racemic) [Example 104, (+/−)-5-[({6-Bromo-2-[(2-methoxyethyl)amino]-3-methylquinolin-4-yl}carbonyl)amino]-4-(2-chlorophenyl)pentanoic acid]", "IC50": 410}, {"molecule": "Cc1c(N2CCCC2)nc2ccc(Br)cc2c1C(=O)NCC(CCC(=O)O)c1cc(F)ccc1Cl", "note": "(racemic) [Example 13, (+/−)-5-({[6-Bromo-3-methyl-2-(pyrrolidin-1-yl)quinolin-4-yl]carbonyl}amino)-4-(2-chloro-5-fluorophenyl)pentanoic acid]", "IC50": 18}, {"molecule": "(+)-5-({[6-Bromo-3-methyl-2-(piperidin-1-yl)quinolin-4-yl]carbonyl}amino)-4-(2,3,6-trichlorophenyl)pentanoic acid [Example 175]", "IC50": 160}, {"molecule": "Cc1c(N2CCCCCC2)nc2ccc(Br)cc2c1C(=O)NCC(CCC(=O)O)c1ccccc1C(F)(F)F", "note": "(single isomer, unassigned; (-)) [Example 121, (−)-5-({[2-(Azepan-1-yl)-6-bromo-3-methylquinolin-4-yl]carbonyl}amino)-4-[2-(trifluoromethyl)phenyl]pentanoic acid]", "IC50": 4.1}, {"molecule": "CCC1CCCN(c2nc3ccc(Br)cc3c(C(=O)NCC(CCC(=O)O)c3ccccc3Cl)c2C)C1", "note": "(single isomer, unassigned; (+)) [Example 58, (+)-5-[({6-Bromo-2-[3-ethylpiperidin-1-yl]-3-methylquinolin-4-yl}carbonyl)amino]-4-(2-chlorophenyl)pentanoic acid]", "IC50": 0.52}, {"molecule": "Cc1c(N2CCCC(C)C2)nc2ccc(Br)cc2c1C(=O)NCC(CCC(=O)O)c1ccccc1Cl", "note": "(centres unmarked) [Example 45, 5-[({6-Bromo-3-methyl-2-[3-methylpiperidin-1-yl]quinolin-4-yl}carbonyl)amino]-4-(2-chlorophenyl)pentanoic acid]", "IC50": 4.7}, {"molecule": "Cc1c(N2CC3CCC(C3)C2)nc2ccc(Br)cc2c1C(=O)NCC(CCC(=O)O)c1ccccc1Cl", "note": "(racemic) [Example 74, (+/−)-5-[({2-[3-Azabicyclo[3.2.1]oct-3-yl]-6-bromo-3-methylquinolin-4-yl}carbonyl)amino]-4-(2-chlorophenyl)pentanoic acid]", "IC50": 170}, {"molecule": "Cc1c(N2CCCCC2)nc2ccc(Br)cc2c1C(=O)NCC(CCC(=O)O)c1ccccc1OC(F)(F)F", "note": "(single isomer, unassigned; (-)) [Example 127, (−)-5-({[6-Bromo-3-methyl-2-(piperidin-1-yl)quinolin-4-yl]carbonyl}amino)-4-[2-(trifluoromethoxy)phenyl]pentanoic acid]", "IC50": 0.79}, {"molecule": "CCC1CCCN(c2nc3ccc(Br)cc3c(C(=O)NCC(CCC(=O)O)c3ccccc3C(F)(F)F)c2C)C1", "note": "(single isomer, unassigned; (-)) [Example 194, (−)-5-[({6-Bromo-2-[3-ethylpiperidin-1-yl]-3-methylquinolin-4-yl}carbonyl)amino]-4-[2-(trifluoromethyl)phenyl]pentanoic acid]", "IC50": 11}, {"molecule": "Cc1c(N2CCCCCC2)nc2ccc(Br)cc2c1C(=O)NCC(CCC(=O)O)c1ccccc1OC(F)(F)F", "note": "(single isomer, unassigned; (-)) [Example 136, (−)-5-({[2-(Azepan-1-yl)-6-bromo-3-methylquinolin-4-yl]carbonyl}amino)-4-[2-(trifluoromethoxy)phenyl]pentanoic acid]", "IC50": 1.1}, {"molecule": "Cc1c(N2CC=CCC2)nc2ccc(Br)cc2c1C(=O)NCC(CCC(=O)O)c1ccccc1Cl", "note": "(racemic) [Example 29, (+/−)-5-({[6-Bromo-2-(3,6-dihydropyridin-1(2H)-yl)-3-methylquinolin-4-yl]carbonyl}amino)-4-(2-chlorophenyl)pentanoic acid]", "IC50": 22}]}]}
